According to patent US7985766B2, “Combination of anticholineric and β mimetics for the treatment of respiratory diseases” (MEDA Pharma GmbH & Co. KG, priority 2004, dated 2011):
Like-named read-outs stand apart in the source and are kept apart here.

System: guinea pigs
Conditions: for inhibition of acetylcholine-induced bronchoconstriction (bronchodilatory effect): 1 μg/kg, single drug; for inhibition of acetylcholine-induced bronchoconstriction (bronchodilatory effect) / inhibition of the bronchospasm: i.th.; for inhibition of acetylcholine-induced bronchoconstriction, dose dependence: i.th. 1-10 μg/kg, acetylcholine 10 μg/kg i.v., anesthetized male guinea pigs
Method: After cannulating the trachea, animals were respired using a small animal respiratory pump with a constant tidal volume and a rate of 60 breaths/min. The lung resistance was measured by using a rodent lung function recording system (MUMED, London, UK). Compounds were given intravenously (i.v.) via a catheter placed in the right jugular vein. After surgery, the animals were allowed to stabilize. 10 min before acetylcholine (10 μg/kg, i.v.) administration, the guinea pigs were disconnected from the respirator and either vehicle (10 mg/lactose) or different amounts of drugs (blended with lactose) were administered intratracheally (i.th.) using a syringe. The trachea was then reconnected to the respirator and changes in pulmonary mechanics were recorded. Acetylcholine (10 μg/kg) was injected intravenously in every 10 minutes for 60 min.

Structure (SMILES) | inhibition of acetylcholine-induced bronchoconstriction (bronchodilatory effect) | inhibition of the bronchospasm (3 μg/kg) | inhibition of the bronchospasm (10 μg/kg) | inhibition of acetylcholine-induced bronchoconstriction, dose dependence
C[N+]1(C)CC[C@@H](OC(=O)[C@](O)(c2ccccc2)C2CCCC2)C1.[Br-] [R,R-glycopyrrolate] | not effective | ca. 40% | about 80% | dose-dependently inhibited
COc1ccc(CC(C)NCC(O)c2ccc(O)c(NC=O)c2)cc1 (stereo not drawn) [formoterol] | did not show any bronchodilatory effects | – | – | dose-dependently inhibited
